pIC50: −log10 of the molar value. Where a name gives a salt, the structure may show the parent alone.
Assays:
M1 = target: T1, M1 (Homo sapiens, UniProt P11229); experiment: GPCR Calcium Flux assay (FLIPR tetra, Eurofins), M1; assay type: cell-based; settings: for inhibition at 10 µM: single concentration of 10 uM, read-out: inhibition rate (%) M1; for pIC50: 8 concentrations 10 to 0.0006 uM, read-out: 50% inhibitory concentration (IC50) M1
T1 sequence (P11229 1-460): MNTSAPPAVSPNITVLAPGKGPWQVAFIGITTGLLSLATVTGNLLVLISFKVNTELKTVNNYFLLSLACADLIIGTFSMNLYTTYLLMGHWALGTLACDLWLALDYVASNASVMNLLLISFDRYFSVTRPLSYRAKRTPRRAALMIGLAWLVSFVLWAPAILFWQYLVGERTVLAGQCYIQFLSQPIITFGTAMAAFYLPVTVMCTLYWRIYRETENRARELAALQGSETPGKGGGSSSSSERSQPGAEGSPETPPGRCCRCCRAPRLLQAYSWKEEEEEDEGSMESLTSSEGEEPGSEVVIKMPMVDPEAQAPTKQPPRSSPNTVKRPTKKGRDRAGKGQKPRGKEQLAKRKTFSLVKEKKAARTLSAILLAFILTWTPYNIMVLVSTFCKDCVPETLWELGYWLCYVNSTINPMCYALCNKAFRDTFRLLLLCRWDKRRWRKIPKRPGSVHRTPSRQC
Description: (§1) In order to confirm whether the compounds prepared in the above Examples act as an agonist or antagonist against GPCR Target, Calcium Flux assay was performed in an assay plate in which the compounds prepared in the Examples, vehicle controls, and reference compounds were added, using a Fluorometric imaging plate reader (FLIPR tetra) equipment.
(§2) Calcium Flux assay was evaluated by entrusting the GPCR profiler assay in Safety panel assays with Eurofins. By using the Fluo-8AM calcium dye, excitation was measured at a wavelength in the range of 470 to 495 nm and Emission was measured at a wavelength in the range of 515-575 nm. GPCR Assay Buffer for Calcium Flux assay was prepared by adding 20 mM of HEPES and 2.5 mM of Probenecid to Hanks Balanced Salt Solution (HBSS) to have pH 7.4. The Compounds of Examples for evaluation of the GPCR were diluted with DMSO at a concentration of 10 mM to make a stock and then prepared by diluting in the GPCR Assay Buffer at the concentration equivalent to three times the final concentration. First, for the evaluation of GPCRs, the inhibitory activity of the compounds of the Examples was evaluated at a single concentration of 10 uM, and then the respective selected targets were four fold-diluted from 10 uM to the low side to calculate 50% inhibitory concentration (IC50), prepared at the total 8 concentrations of 10, 2.5, 0.62, 0.15, 0.04, 0.01, 0.0024, 0.0006 uM, and Calcium Flux assay for GPCR was conducted. In order to evaluate the agonist and antagonist, % inhibition rate against GPCR activity before and after treatment of the compounds and the inhibitory activity of the compounds of the Examples were determined.
(§3) As a result, when the efficacy of […] and acetylcholine of the compounds prepared in the Examples was 100%, the inhibition rate (%) at a single concentration of 10 uM was evaluated and shown in Table 8.

[1] = tested on: basal gastric acid secretion in pylorus-ligated rats; experiment: Inhibitory effects on basal gastric acid secretion in pylorus-ligated rats (Shay's rat model); assay type: in vivo, Sprague Dawley (SD) rats; settings: 2.0 mg/kg into the duodenum, 5 hours after ligation
Description: Inhibitory effects of the compounds prepared in Examples 2, 8 and 22 on basal gastric acid secretion were measured according to Shay's rat model (Shay, H., et al., 1945, gastroenterology, 5, p 43-61). Male Sprague Dawley (SD) rats (body weight 180-220 g) were divided into 4 groups (n=6-7) and fasted for 18 hours with free access to water. Under isoflurane anesthesia, the abdomens of the rats were incised and then the pylorus was ligated. Immediately after ligation, control group was administered with 2 mL/kg of 0.5% methyl cellulose (MC) aqueous solution into the duodenum, and the other groups were administered with test compounds suspended in 0.5% methyl cellulose (MC) aqueous solution at a dose of 2.0 mg/kg/2 ml. 5 hours after ligation, the test animals were sacrificed, and gastric contents were removed. The removed contents were centrifuged at 4,000×g for 10 minutes and the supernatant was separated to obtain the gastric juice. The amount and pH of the gastric juice were measured and the acidity in the gastric juice was measured by 0.1N NaOH volume (ueq/mL) required for the titration of gastric acid to pH 7.0. Total acid output was measured by multiplying the acidity of the gastric juice by the amount of the gastric juice. % inhibitory activity of test compounds were calculated according to the following equation, and the results are shown in Table 2. % inhibitory activity of test compound=[(total acid output of control group-total acid output of the group treated with test compounds)/total acid output of control group]×100 [Equation 1]

M2 = target: T2, M2 (Homo sapiens, UniProt P08172); experiment: GPCR Calcium Flux assay (FLIPR tetra, Eurofins), M2; assay type: cell-based; settings: for inhibition at 10 µM: single concentration of 10 uM, read-out: inhibition rate (%) M2; for pIC50: 8 concentrations 10 to 0.0006 uM, read-out: 50% inhibitory concentration (IC50) M2
T2 sequence (P08172 1-466): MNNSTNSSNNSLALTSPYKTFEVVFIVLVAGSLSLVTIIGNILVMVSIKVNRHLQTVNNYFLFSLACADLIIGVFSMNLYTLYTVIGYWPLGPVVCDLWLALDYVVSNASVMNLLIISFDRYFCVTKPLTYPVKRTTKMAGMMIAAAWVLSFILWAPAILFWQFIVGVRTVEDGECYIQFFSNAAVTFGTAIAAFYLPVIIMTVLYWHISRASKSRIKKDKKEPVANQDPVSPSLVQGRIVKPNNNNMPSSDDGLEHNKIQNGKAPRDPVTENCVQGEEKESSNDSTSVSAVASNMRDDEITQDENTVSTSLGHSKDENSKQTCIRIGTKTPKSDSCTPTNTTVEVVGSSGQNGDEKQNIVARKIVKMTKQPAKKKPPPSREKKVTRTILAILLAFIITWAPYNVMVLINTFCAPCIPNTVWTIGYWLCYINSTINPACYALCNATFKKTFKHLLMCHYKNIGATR
Description: as §1, §2, §3

| Compound | inhibition at 10 µM (M1) | % inhibitory activity (total acid output) [1] | inhibition at 10 µM (M2) | pIC50 (M1) | pIC50 (M2) |
| --- | --- | --- | --- | --- | --- |
| CNCc1cn(S(=O)(=O)c2cccc(C(F)(F)F)c2)c(-c2ccccc2F)c1OC [Example 2, hydrochloride] | 92.7% | 93.5% | -4.7% |  |  |
| CNCc1cn(S(=O)(=O)c2cccc(F)c2)c(-c2ccc(F)cc2F)c1OC.Cl [Example 8, 1-(5-(2,4-difluorophenyl)-1-((3-fluorophenyl)sulfonyl)-4-methoxy-1H-pyrrol-3-yl)-N-methylmethanamine hydrochloride] | 101% | 90.5% | 101% | 6.85 | 6.19 |
| CNCc1cn(S(=O)(=O)c2cccc(F)c2)c(-c2c(F)cc(F)cc2F)c1OC.Cl [Example 22, 1-(1-((3-fluorophenyl)sulfonyl)-4-methoxy-5-(2,4,6-trifluorophenyl)-1H-pyrrol-3-yl)-N-methylmethanamine hydrochloride] | 98% | 88.1% | 100% | 6.43 | 6.00 |

Source: US10100010B1, “4-methoxy pyrrole derivatives or salts thereof and pharmaceutical composition comprising the same” (Daewoong Pharmaceutical Co., Ltd., priority 2015, dated 2018)
